From patent US20260335314A1, “CRYSTALLINE SALTS OR AMORPHOUS FORMS OF 2-((1H-PYRAZOL-3-YL)METHYL)-6-((6-AMINOPYRIDIN-2-YL)METHYL)-4-METHYL-4,6-DIHYDRO -5H-THIAZOLO[5',4':4,5]PYRROLO[2,3-D]PYRIDAZIN-5-ONE” (Agios Pharmaceuticals, Inc., priority 2023, published 2026)
In brackets after ≈: the same amount, converted by molar mass.

Experiments:
pH solubility in buffers = type: physicochemical; settings: for solubility at 2 h / solubility at 24 h / solubility: 37 °C; for pH (24 h): pH of solution at 24 h
Protocol: (§1) Solubility samples were prepared by weighing about 10 mg of each salt and adding 1 mL of media and vortexed briefly to obtain suspensions. […] For such instances, the solubility is calculated as greater than (>).
(§2) The sample vials were capped and wrapped in aluminum foil, and placed on a shaker at 37° C. The shaker was set at about 100 rpm and vials were removed at specified time points. The vials were observed, and the supernatants were transferred to Eppendorf tubes and centrifuged at 3K for 10 minutes. The clear supernatants were transferred to HPLC vials. The samples were diluted prior to HPLC analysis using the dilution media by 2× or used without dilution. pH was measured of the 24 hour timepoint after centrifugation using a micro pH probe.
(§3) • pH 2 buffer USP: Mixed 50 mL of 0.2M potassium chloride and 13 mL 0.2M HCl, diluted to 200 mL with water. • pH 4.5 buffer USP: 5.44 g of potassium dihydrogen phosphate was diluted to 1000 mL with water. • pH 6.8 buffer USP: Mixed 50 mL of 0.2M potassium phosphate and 22.4 mL 0.2M sodium hydroxide. Diluted with water to 200 mL. • SGF: 2.0109 g of NaCl was dissolved in water, added 7 mL of conc. HCl and diluted to 1 L. • FeSSIF: 4.0321 g of NaOH and 11.8726 g of NaCl were dissolved in water, added 8.65 mL of glacial acetic acid, adjusted the pH to 5.0 and diluted to 1 L. • FaSSIF: 0.4247 g of NaOH, 3.9548 g of sodium phosphate monobasic monohydrate and 6.1900 g of NaCl were dissolved in water, adjusted the pH to 6.5 and diluted to 1 L.
At each time point, the solution was analyzed by HPLC and residue was vacuum dried and analyzed by XRPD. The pH of the solution was measured at 24 hours.

[1] = Dynamic vapor sorption (moisture uptake); type: physicochemical; settings: 25° C., from 5% to 95% relative humidity
Protocol: Dynamic Vapor Sorption (DVS) was carried out using a TA Instruments Q5000 Dynamic Vapor Sorption analyzer. The instrument was calibrated with standard weights and a sodium bromide standard for humidity. Approximately 10-25 mg of sample was loaded into a metal-coated quartz pan for analysis. […] The movement from one step to the next occurred either after satisfying the equilibrium criterion of 0.01% weight change or, if the equilibrium criterion was not met, after one hour. The percent weight change values were calculated using Microsoft Excel®.

[2] = Physicochemical properties of Form A (summary)
[3] = Pharmacokinetics / absolute bioavailability in male Sprague Dawley rats; type: in vivo
Protocol: Twenty-one (21) male Sprague Dawley rats (purchased from Shanghai Laboratory Animal Center Co., Ltd., Shanghai, China) were randomized into 7 groups (3 animals per group). The animals fasted overnight, the forms of Compound 1 shown in Table 7 were administered by oral gavage, and the animals were fed 4 hours post-dose.
Blood was serially collected from each animal at 0 (pre-dose), 0.083, 0.25, 0.5, 1, 2, 4, 8, and 24 h post-dose. For each collection, the animal was restrained manually, and approximately 150 μL of blood sample was collected via the tail vein into K2EDTA tubes. Plasma samples were stored at approximately −70° C. until analysis.
To enable the calculation of absolute bioavailability, Compound 1 was formulated as a solution in 10% N-methyl-2-pyrrolidone, 10% Solutol HS 15, and 80% saline and administered at 1 mg/kg as intravenous (IV) bolus dose to a separate group of male Sprague Dawley rats, and blood samples were collected at similar timepoints to those shown above. Further, plasma samples were obtained from the collected samples and stored at approximately −70° C. until analysis.
The concentration of Compound 1 in the plasma samples was determined by LC-MS/MS analysis.
A 20 μL aliquot of each plasma sample was mixed with 200 μL of acetonitrile containing glipizide as an internal standard (40 ng/mL). The resulting mixture was vortexed at 1500 rpm for 2 min and centrifuged at 5800 rpm for 10 min. A 1 μL sample from the supernatant was injected into LC-MS/MS.
LC-MS/MS analysis was conducted on a UPLC/MS-MS (API 6500+) system under the conditions outlined in Table 8
The absolute bioavailability of each form of Compound 1 was determined by dividing the AUCinf of the form in question by the AUCinf obtained historical data by IV administration of Compound 1.

[4] = Kinetic solubility in biorelevant media; type: physicochemical
Protocol: as §1, §2
as §3, with “adjusted the pH to 5.0 and diluted to 1 L. • FaSSIF:” left out
Kinetic solubility was determined in biorelevant media. At each time point, the solution was analyzed by HPLC. The solid residue was analyzed by XRPD at selected time points. The pH of the solution was measured at 24 hours.

[5] = Stability study of Form A (storage); type: physicochemical
[6] = SGF pH 1.2, pH of solution at 24 h

## Cn1c2nc(Cc3cc[nH]n3)sc2c2cnn(Cc3cccc(N)n3)c(=O)c21 [Form A]
pH solubility in buffers; 0.1 n hcl, 2 h
  solubility at 2 h: 1970 µg/mL (≈ 5020 µM)
pH solubility in buffers; 0.1 n hcl, 24 h
  solubility at 24 h: 1480 µg/mL (≈ 3770 µM)
pH solubility in buffers; pH 2 (USP), 2 h, 120 min
  solubility: 400 µg/mL (≈ 1020 µM)
pH solubility in buffers; pH 2 (USP), 24 h, 1440 min
  solubility: 300 µg/mL (≈ 764 µM)
pH solubility in buffers; pH 2 (USP)
  pH (24 h): 2.06
pH solubility in buffers; pH 4.5 (USP), 2 h, 120 min
  solubility: 60 µg/mL (≈ 153 µM)
pH solubility in buffers; pH 4.5 (USP), 24 h, 1440 min
  solubility: 50 µg/mL (≈ 127 µM)
pH solubility in buffers; pH 4.5 (USP)
  pH (24 h): 4.32
pH solubility in buffers; pH 6.8 (USP), 2 h, 120 min
  solubility: 40 µg/mL (≈ 102 µM)
pH solubility in buffers; pH 6.8 (USP), 24 h, 1440 min
  solubility: 70 µg/mL (≈ 178 µM)
pH solubility in buffers; pH 6.8 (USP)
  pH (24 h): 5.63
[1]
  moisture uptake (DVS): about 0.08%
[2]; especially containing water
  stability in solvent systems: stability in multiple solvent systems
[2]; relative humidity
  stability in humidity: at least 20 % RH
[2]; under microscope
  particle size: below 20 μm
[2]; water activity
  stability in humidity (water activity): ≥ 0.2
[3]; oral gavage, 10 mg/kg
  absolute bioavailability, comparison with other forms: higher than the measured bioavailability of the other forms of Compound 1
[3]; oral gavage, 10 mg/kg, fasted overnight, plasma
  AUCinf: 9426 ng·h/mL
[3]; oral gavage, 10 mg/kg, vs historical IV AUCinf, 10 mg/kg
  Absolute % F: 60%
[3]; summary statement
  plasma concentration-time profiles and pharmacokinetic parameters: favorable plasma concentration-time profiles and pharmacokinetic parameters
[4]; FaSSIF pH 6.5, 10 min, 37 °C, 10 min
  solubility: 120 µg/mL (≈ 306 µM)
[4]; FaSSIF pH 6.5, 30 min, 37 °C, 30 min
  solubility: 120 µg/mL (≈ 306 µM)
[4]; FaSSIF pH 6.5, 1 h, 37 °C, 60 min
  solubility: 110 µg/mL (≈ 280 µM)
[4]; FaSSIF pH 6.5, 2 h, 37 °C, 120 min
  solubility: 160 µg/mL (≈ 408 µM)
[4]; FaSSIF pH 6.5, 4 h, 37 °C, 240 min
  solubility: 170 µg/mL (≈ 433 µM)
[4]; FaSSIF pH 6.5, 24 h, 37 °C, 1440 min
  solubility: 180 µg/mL (≈ 459 µM)
[4]; FaSSIF pH 6.5, pH of solution at 24 h
  pH (24 h): 3.91
[4]; FeSSIF pH 5.0, 10 min, 37 °C, 10 min
  solubility: 550 µg/mL (≈ 1400 µM)
[4]; FeSSIF pH 5.0, 30 min, 37 °C, 30 min
  solubility: 100 µg/mL (≈ 255 µM)
[4]; FeSSIF pH 5.0, 1 h, 37 °C, 60 min
  solubility: 230 µg/mL (≈ 586 µM)
[4]; FeSSIF pH 5.0, 2 h, 37 °C, 120 min
  solubility: 70 µg/mL (≈ 178 µM)
[4]; FeSSIF pH 5.0, 4 h, 37 °C, 240 min
  solubility: 70 µg/mL (≈ 178 µM)
[4]; FeSSIF pH 5.0, 24 h, 37 °C, 1440 min
  solubility: 30 µg/mL (≈ 76.4 µM)
[4]; FeSSIF pH 5.0, pH of solution at 24 h
  pH (24 h): 5.74
[4]; [6]
  pH (24 h): 0.87
[4]; sgf, pH 1.2, SGF pH 1.2, 10 min, 37 °C
  solubility at 10 min: 2850 µg/mL (≈ 7260 µM)
[4]; sgf, pH 1.2, SGF pH 1.2, 30 min, 37 °C
  solubility at 0.5 h: 4960 µg/mL (≈ 12600 µM)
[4]; sgf, pH 1.2, SGF pH 1.2, 1 h, 37 °C
  solubility at 1 h: 2840 µg/mL (≈ 7240 µM)
[4]; sgf, pH 1.2, SGF pH 1.2, 2 h, 37 °C
  solubility at 2 h: 3240 µg/mL (≈ 8260 µM)
[4]; sgf, pH 1.2, SGF pH 1.2, 4 h, 37 °C
  solubility at 4 h: 3770 µg/mL (≈ 9610 µM)
[4]; sgf, pH 1.2, SGF pH 1.2, 24 h, 37 °C
  solubility at 24 h: 2880 µg/mL (≈ 7340 µM)
[5]; one month under 25±2° C./60±5% RH
  degradation: No degradation was observed
[5]; one month under 40±2° C./75±5% RH
  degradation: No degradation was observed

## Cn1c2nc(Cc3cc[nH]n3)sc2c2cnn(Cc3cccc(N)n3)c(=O)c21.O=C(O)C(O)C(O)C(=O)O (racemic) [Form C]
pH solubility in buffers; 0.1N HCl
  dissolution in 0.1N HCl: dissolved instantly
pH solubility in buffers; 0.1 N HCl
  pH (24 h): 1.27
pH solubility in buffers; 0.1 n hcl, dissolved instantly, estimated by adding 100 uL aliquots, read-out: solubility
  solubility: > 10900 µg/mL
pH solubility in buffers; buffers pH 1 to pH 6.8
  pH solubility, overall: highest solubility
pH solubility in buffers; pH 2 (USP)
  pH (24 h): 2.52
pH solubility in buffers; pH 4.5 (USP)
  pH (24 h): 3.92
pH solubility in buffers; pH 6.8 (USP)
  pH (24 h): 3.54
pH solubility in buffers; ph 2 buffer (usp), pH 2, pH 2 (USP), 2 h
  solubility at 2 h: 3810 µg/mL
pH solubility in buffers; ph 2 buffer (usp), pH 2, pH 2 (USP), 24 h
  solubility at 24 h: 2460 µg/mL
pH solubility in buffers; ph 4.5 buffer (usp), pH 4.5, pH 4.5 (USP), 2 h
  solubility at 2 h: 150 µg/mL
pH solubility in buffers; ph 4.5 buffer (usp), pH 4.5, pH 4.5 (USP), 24 h
  solubility at 24 h: 120 µg/mL
pH solubility in buffers; ph 6.8 buffer (usp), pH 6.8, pH 6.8 (USP), 2 h
  solubility at 2 h: 370 µg/mL
pH solubility in buffers; ph 6.8 buffer (usp), pH 6.8, pH 6.8 (USP), 24 h
  solubility at 24 h: 330 µg/mL
[1]
  moisture uptake (DVS): about 0.06%
[3]; oral gavage, 10 mg/kg
  absolute bioavailability, comparison with other forms: higher than the measured bioavailability of the other forms of Compound 1
[3]; rat, plasma, po, 10 mg/kg, oral gavage, 10 mg/kg, vs historical IV AUCinf, read-out: Absolute % F
  bioavailability: 91%
[3]; rat, plasma, po, 10 mg/kg, oral gavage, fasted overnight
  AUC(0-inf): 14200 ng·h/mL
[4]; FaSSIF pH 5.0 (so in the source), pH of solution at 24 h
  pH (24 h): 4.60
[4]; FeSSIF pH 6.5 (so in the source), pH of solution at 24 h
  pH (24 h): 3.35
[4]; [6]
  pH (24 h): 1.13
[4]; all media tested
  kinetic solubility, overall: highest solubility in all media tested
[4]; fassif, pH 5, FaSSIF pH 5.0 (so in the source), 10 min, 37 °C
  solubility at 10 min: 650 µg/mL
[4]; fassif, pH 5, FaSSIF pH 5.0 (so in the source), 30 min, 37 °C
  solubility at 0.5 h: 310 µg/mL
[4]; fassif, pH 5, FaSSIF pH 5.0 (so in the source), 1 h, 37 °C
  solubility at 1 h: 250 µg/mL
[4]; fassif, pH 5, FaSSIF pH 5.0 (so in the source), 2 h, 37 °C
  solubility at 2 h: 200 µg/mL
[4]; fassif, pH 5, FaSSIF pH 5.0 (so in the source), 4 h, 37 °C
  solubility at 4 h: 100 µg/mL
[4]; fassif, pH 5, FaSSIF pH 5.0 (so in the source), 24 h, 37 °C
  solubility at 24 h: 120 µg/mL
[4]; fessif, pH 6.5, FeSSIF pH 6.5 (so in the source), 10 min, 37 °C
  solubility at 10 min: 530 µg/mL
[4]; fessif, pH 6.5, FeSSIF pH 6.5 (so in the source), 30 min, 37 °C
  solubility at 0.5 h: 860 µg/mL
[4]; fessif, pH 6.5, FeSSIF pH 6.5 (so in the source), 1 h, 37 °C
  solubility at 1 h: 910 µg/mL
[4]; fessif, pH 6.5, FeSSIF pH 6.5 (so in the source), 2 h, 37 °C
  solubility at 2 h: 990 µg/mL
[4]; fessif, pH 6.5, FeSSIF pH 6.5 (so in the source), 4 h, 37 °C
  solubility at 4 h: 810 µg/mL
[4]; fessif, pH 6.5, FeSSIF pH 6.5 (so in the source), 24 h, 37 °C
  solubility at 24 h: 20 µg/mL
[4]; sgf, pH 1.2, SGF pH 1.2, 37 °C, dissolved instantly, from total volume of media added, read-out: solubility
  solubility: > 11100 µg/mL
[4]; simulated gastric fluid (SGF)
  dissolution in SGF: dissolved instantly
